From ChEMBL document CHEMBL6127014, “Repurposing antiplasmodial leads for cancer: Exploring the antiproliferative effects of N-cinnamoyl-aminoacridines” (Bioorg Med Chem Lett, 2024)
Active and inactive are the calls of the source. The rule behind the calls is not given here.

How the values were obtained:
[1] = Cytotoxicity against HDF cells assessed as reduction in cell viability at 12.5 to 25 uM incubated for 24 hrs by MTT assay; assay type: toxicity, cell-based; conditions: human, dose 12.5-25 µM
MKN-28 [2] = assay: Cytotoxicity against human MKN-28 cells assessed as reduction in cell viability at 12.5 to 25 uM incubated for 24 hrs by MTT assay; assay type: functional, cell-based; conditions: dose 12.5-25 µM
[3] = Selectivity index, ratio of IC50 for cytotoxicity against HDF cells to IC50 for antiproliferative activity against human MKN-28 cells; assay type: toxicity, cell-based; conditions: HDF cells versus MKN-28 cells, read-out: Ratio IC50
[4] = Cytotoxicity against HDF cells assessed as reduction in cell viability at 12.5 to 50 uM incubated for 24 hrs by MTT assay; assay type: toxicity, cell-based; conditions: human, dose 12.5-50 µM
[5] = Selectivity index, ratio of IC50 for cytotoxicity against HDF cells to IC50 for antiproliferative activity against human Huh-7 cells; assay type: toxicity, cell-based; conditions: HDF cells versus Huh-7 cells, read-out: Ratio IC50
[6] = Selectivity index, ratio of IC50 for cytotoxicity against HDF cells to IC50 for antiproliferative activity against human HepG2 cells; assay type: toxicity, cell-based; conditions: HDF cells versus HepG2 cells, read-out: Ratio IC50
MKN-28 [7] = assay: Cytotoxicity against human MKN-28 cells assessed as reduction in cell viability at 12.5 to 50 uM incubated for 24 hrs by MTT assay; assay type: functional, cell-based; conditions: dose 12.5-50 µM
MKN-28 [8] = assay: Antiproliferative activity against human MKN-28 cells assessed as inhibition of cell growth incubated for 24 hrs by MTT assay; assay type: functional, cell-based; conditions: MKN-28, 24 h
Huh-7 = assay: Antiproliferative activity against human Huh-7 cells assessed as inhibition of cell growth incubated for 24 hrs by Alamar blue assay; assay type: functional, cell-based; conditions: Huh-7, 24 h
HepG2 = assay: Antiproliferative activity against human HepG2 cells assessed as inhibition of cell growth incubated for 24 hrs by Alamar blue assay; assay type: functional, cell-based; conditions: HepG2, 24 h
[9] = Cytotoxicity against HDF cells assessed as inhibition of cell growth incubated for 24 hrs by MTT assay; assay type: toxicity, cell-based; conditions: human
MKN-28 [10] = assay: Antiproliferative activity against human MKN-28 cells assessed as inhibition of cell growth incubated for 2 days by SRB assay; assay type: functional, cell-based; conditions: MKN-28, 48 h

Structure (SMILES) | IC50 (MKN-28 [8]) [µM] | IC50 (Huh-7) [µM] | IC50 (HepG2) [µM] | IC50 (MKN-28 [10]) [µM] | Activity [1] | Activity (MKN-28 [2]) | selectivity ratio [3] | Activity [4] | selectivity ratio [5] | selectivity ratio [6] | Activity (MKN-28 [7]) | IC50 at 24 h [9] [µM]
COc1cc(NCCCCNC(=O)/C=C/c2cccc(F)c2)c2nc3cc(Cl)ccc3cc2c1 | – | – | – | – | Non-Toxic | inactive | – | – | – | – | – | –
COc1cc(NCCCCNC(=O)/C=C/c2ccc([N+](=O)[O-])cc2)c2nc3cc(Cl)ccc3cc2c1 | – | – | – | – | Non-Toxic | inactive | – | – | – | – | – | –
COc1cc(NCCCCNC(=O)/C=C/c2ccc(C)cc2)c2nc3cc(Cl)ccc3cc2c1 | – | – | – | – | Non-Toxic | inactive | – | – | – | – | – | –
COc1cc(NCCCCNC(=O)/C=C/c2cccc(Br)c2)c2nc3cc(Cl)ccc3cc2c1 | – | – | – | – | Non-Toxic | inactive | – | – | – | – | – | –
COc1cc(NCCCCNC(=O)/C=C/c2ccc(F)cc2)c2nc3cc(Cl)ccc3cc2c1 | – | – | – | – | Non-Toxic | inactive | – | – | – | – | – | –
COc1cc(NCCCCNC(=O)/C=C/c2ccc(C(C)C)cc2)c2nc3cc(Cl)ccc3cc2c1 | – | – | – | – | Non-Toxic | inactive | – | – | – | – | – | –
COc1cc(NCCCCNC(=O)/C=C/c2ccc(C(F)(F)F)cc2)c2nc3cc(Cl)ccc3cc2c1 | – | – | – | – | Non-Toxic | inactive | – | – | – | – | – | –
COc1cc(NCCCCNC(=O)/C=C/c2ccccc2)c2nc3cc(Cl)ccc3cc2c1 | – | – | – | – | Non-Toxic | inactive | – | – | – | – | – | –
CNc1ccc(/C=C/C(=O)NCCCCNc2cc(OC)cc3cc4ccc(Cl)cc4nc23)cc1 | – | – | – | – | Non-Toxic | inactive | – | – | – | – | – | –
COc1cc(NCCCCNC(=O)/C=C/c2ccc(OC)c(OC)c2)c2nc3cc(Cl)ccc3cc2c1 | – | – | – | – | Non-Toxic | inactive | – | – | – | – | – | –

Second part, led by results:

IC50 (MKN-28 [8]) [µM] | IC50 (Huh-7) [µM] | IC50 (HepG2) [µM] | IC50 (MKN-28 [10]) [µM] | Structure (SMILES) | Activity [1] | Activity (MKN-28 [2]) | selectivity ratio [3] | Activity [4] | selectivity ratio [5] | selectivity ratio [6] | Activity (MKN-28 [7]) | IC50 at 24 h [9] [µM]
10 | 7.26 | 4.17 | – | CCN(CC)CCCC(C)Nc1c2ccc(Cl)cc2nc2c(NCCCCNC(=O)/C=C/c3ccccc3)cc(OC)cc12 (stereo not drawn) | – | – | > 5 | Non-Toxic | > 6.9 | > 12 | Active | > 50
12.7 | 12.9 | 5.06 | – | CCN(CC)CCCC(C)Nc1c2ccc(Cl)cc2nc2c(NCCCCNC(=O)/C=C/c3cccc(F)c3)cc(OC)cc12 (stereo not drawn) | – | – | > 3.9 | Non-Toxic | > 3.9 | > 9.9 | Active | > 50
– | 8.7 | 4.48 | 2.46 | CCN(CC)CCCC(C)Nc1c2ccc(Cl)cc2nc2ccc(OC)cc12 (stereo not drawn) [QUINACRINE] | – | – | – | – | – | – | – | –
15.4 | 12.1 | 4.11 | – | CCN(CC)CCCNc1c2ccc(Cl)cc2nc2c(NCCCCNC(=O)/C=C/c3ccccc3)cc(OC)cc12 | – | – | > 3.2 | Non-Toxic | > 4.1 | > 12.2 | Active | > 50
13 | 11.5 | 5.21 | – | CCN(CC)CCCNc1c2ccc(Cl)cc2nc2c(NCCCCNC(=O)/C=C/c3cccc(F)c3)cc(OC)cc12 | – | – | > 3.8 | Non-Toxic | > 4.3 | > 9.6 | Active | > 50
12.5 | 12.4 | 7.64 | – | CCN(CC)CCCC(C)Nc1c2ccc(Cl)cc2nc2c(NCCCCNC(=O)/C=C/c3ccc(F)cc3)cc(OC)cc12 (stereo not drawn) | – | – | > 4 | Non-Toxic | > 4 | > 6.5 | Active | > 50
12.2 | 11.2 | 6.32 | – | CCN(CC)CCCNc1c2ccc(Cl)cc2nc2c(NCCCCNC(=O)/C=C/c3ccc(F)cc3)cc(OC)cc12 | – | – | > 4.1 | Non-Toxic | > 4.5 | > 7.9 | Active | > 50
– | 6.05 | 0.425 | 0.34 | COc1cccc2c1C(=O)c1c(O)c3c(c(O)c1C2=O)C[C@@](O)(C(=O)CO)C[C@@H]3O[C@H]1C[C@H](N)[C@H](O)[C@H](C)O1 [DOXORUBICIN] | – | – | – | – | – | – | – | –
15.5 | 12.4 | 5.38 | – | CCN(CC)CCCNc1c2ccc(Cl)cc2nc2c(NCCCCNC(=O)/C=C/c3ccc(OC)cc3)cc(OC)cc12 | – | – | > 3.2 | Non-Toxic | > 4 | > 9.3 | Active | > 50
13.7 | 12.1 | 3.33 | – | CCN(CC)CCCC(C)Nc1c2ccc(Cl)cc2nc2c(NCCCCNC(=O)/C=C/c3ccc(OC)cc3)cc(OC)cc12 (stereo not drawn) | – | – | > 3.6 | Non-Toxic | > 4.1 | > 15 | Active | > 50
